Measurements reported in PubChem BioAssay (NCI).
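Each compound was tested at five concentrations against cells in 96-well plates for 48 hours. TGI: total growth inhibition.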

What was measured:
Assay in all cases: NCI anticancer screen, dose series, 48 h
OVCAR-8 ovarian = test system: OVCAR-8 ovarian
NCI-H522 lung = test system: NCI-H522 lung
COLO 205 colon = test system: COLO 205 colon
LXFL 529 NSCLC = test system: LXFL 529 NSCLC
OVCAR-3 ovarian = test system: OVCAR-3 ovarian
UACC-62 melanoma = test system: UACC-62 melanoma
SF-295 CNS = test system: SF-295 CNS
SF-268 CNS = test system: SF-268 CNS
TK-10 renal = test system: TK-10 renal
SR leukemia = test system: SR leukemia
MOLT-4 leukemia = test system: MOLT-4 leukemia
KM12 colon = test system: KM12 colon
IGROV1 ovarian = test system: IGROV1 ovarian
OVCAR-5 ovarian = test system: OVCAR-5 ovarian
SW-620 colon = test system: SW-620 colon
UO-31 renal = test system: UO-31 renal
SK-MEL-5 melanoma = test system: SK-MEL-5 melanoma
HOP-92 NSCLC = test system: HOP-92 NSCLC
RPMI-8226 leukemia = test system: RPMI-8226 leukemia
HT29 colon = test system: HT29 colon
NCI-H23 lung = test system: NCI-H23 lung
ACHN renal = test system: ACHN renal
A549 NSCLC = test system: A549 NSCLC
SK-MEL-28 melanoma = test system: SK-MEL-28 melanoma
UACC-257 melanoma = test system: UACC-257 melanoma
HCT-116 colon = test system: HCT-116 colon
A498 renal = test system: A498 renal
M19-MEL melanoma = test system: M19-MEL melanoma
U251 CNS = test system: U251 CNS
SK-OV-3 ovarian = test system: SK-OV-3 ovarian
HOP-18 NSCLC = test system: HOP-18 NSCLC
NCI-H460 lung = test system: NCI-H460 lung
SF-539 CNS = test system: SF-539 CNS
HL-60(TB) leukemia = test system: HL-60(TB) leukemia
SK-MEL-2 melanoma = test system: SK-MEL-2 melanoma
MALME-3M melanoma = test system: MALME-3M melanoma
SNB-19 CNS = test system: SNB-19 CNS
CCRF-CEM leukemia = test system: CCRF-CEM leukemia
K-562 leukemia = test system: K-562 leukemia
SNB-75 CNS = test system: SNB-75 CNS
NCI-H226 lung = test system: NCI-H226 lung
HOP-62 NSCLC = test system: HOP-62 NSCLC
SN12C renal = test system: SN12C renal
EKVX NSCLC = test system: EKVX NSCLC
HCT-15 colon = test system: HCT-15 colon
M14 melanoma = test system: M14 melanoma
786-0 renal = test system: 786-0 renal
DMS 114 small cell lung = test system: DMS 114 small cell lung
DMS 273 small cell lung = test system: DMS 273 small cell lung
HCC-2998 colon = test system: HCC-2998 colon
LOX IMVI melanoma = test system: LOX IMVI melanoma
KM20L2 colon = test system: KM20L2 colon
XF 498 CNS = test system: XF 498 CNS

C=CCn1c(=N)/c(=C(\N)O)s/c1=C1/SC(=S)N(c2ccc(C)cc2)C1=O
TGI (OVCAR-8 ovarian): > 100 µM
TGI (NCI-H522 lung): > 100 µM
TGI (COLO 205 colon): > 100 µM
TGI (LXFL 529 NSCLC): > 100 µM
TGI (OVCAR-3 ovarian): > 100 µM
TGI (UACC-62 melanoma): > 100 µM
TGI (SF-295 CNS): > 100 µM
TGI (SF-268 CNS): > 100 µM
TGI (TK-10 renal): > 100 µM
TGI (SR leukemia): > 100 µM
TGI (MOLT-4 leukemia): > 100 µM
TGI (KM12 colon): > 100 µM
TGI (IGROV1 ovarian): > 100 µM
TGI (OVCAR-5 ovarian): > 100 µM
TGI (SW-620 colon): > 100 µM
TGI (UO-31 renal): > 100 µM
TGI (SK-MEL-5 melanoma): > 100 µM
TGI (HOP-92 NSCLC): > 100 µM
TGI (RPMI-8226 leukemia): > 100 µM
TGI (HT29 colon): > 100 µM
TGI (NCI-H23 lung): > 100 µM
TGI (ACHN renal): > 100 µM
TGI (A549 NSCLC): > 100 µM
TGI (SK-MEL-28 melanoma): > 100 µM
TGI (UACC-257 melanoma): > 100 µM
TGI (HCT-116 colon): > 100 µM
TGI (A498 renal): > 100 µM
TGI (M19-MEL melanoma): > 100 µM
TGI (U251 CNS): > 100 µM
TGI (SK-OV-3 ovarian): > 100 µM
TGI (HOP-18 NSCLC): > 100 µM
TGI (NCI-H460 lung): > 100 µM
TGI (SF-539 CNS): > 100 µM
TGI (HL-60(TB) leukemia): > 100 µM
TGI (SK-MEL-2 melanoma): > 100 µM
TGI (MALME-3M melanoma): > 100 µM
TGI (SNB-19 CNS): > 100 µM
TGI (CCRF-CEM leukemia): > 100 µM
TGI (K-562 leukemia): > 100 µM
TGI (SNB-75 CNS): 44.6 µM
TGI (NCI-H226 lung): > 100 µM

CCCCCCCCCC(=O)NC(Cc1ccc(O)cc1)C(=O)NCCCNCCCCNCCCNC(=O)[C@@H](N)CCCN=C(N)N (stereo partly specified)
TGI (OVCAR-8 ovarian): > 100 µM
TGI (NCI-H522 lung): 69.7 µM
TGI (HOP-62 NSCLC): 69.5 µM
TGI (COLO 205 colon): 34.5 µM
TGI (LXFL 529 NSCLC): > 100 µM
TGI (OVCAR-3 ovarian): > 100 µM
TGI (SN12C renal): > 100 µM
TGI (SF-295 CNS): 85.6 µM
TGI (SF-268 CNS): > 100 µM
TGI (TK-10 renal): > 100 µM
TGI (SR leukemia): > 100 µM
TGI (EKVX NSCLC): > 100 µM
TGI (MOLT-4 leukemia): > 100 µM
TGI (HCT-15 colon): > 100 µM
TGI (KM12 colon): 61.5 µM
TGI (IGROV1 ovarian): 74.5 µM
TGI (SW-620 colon): > 100 µM
TGI (UO-31 renal): > 100 µM
TGI (SK-MEL-5 melanoma): 35.7 µM
TGI (RPMI-8226 leukemia): > 100 µM
TGI (HT29 colon): > 100 µM
TGI (NCI-H23 lung): > 100 µM
TGI (ACHN renal): 67 µM
TGI (M14 melanoma): > 100 µM
TGI (A549 NSCLC): > 100 µM
TGI (SK-MEL-28 melanoma): 43.8 µM
TGI (UACC-257 melanoma): > 100 µM
TGI (HCT-116 colon): > 100 µM
TGI (786-0 renal): > 100 µM
TGI (M19-MEL melanoma): > 100 µM
TGI (SK-OV-3 ovarian): > 100 µM
TGI (DMS 114 small cell lung): > 100 µM
TGI (DMS 273 small cell lung): 42.9 µM
TGI (NCI-H460 lung): > 100 µM
TGI (HCC-2998 colon): > 100 µM
TGI (LOX IMVI melanoma): > 100 µM
TGI (SF-539 CNS): 26.8 µM
TGI (HL-60(TB) leukemia): 48.1 µM
TGI (MALME-3M melanoma): 39.7 µM
TGI (SNB-19 CNS): > 100 µM
TGI (CCRF-CEM leukemia): > 100 µM
TGI (KM20L2 colon): > 100 µM
TGI (K-562 leukemia): > 100 µM
TGI (XF 498 CNS): > 100 µM
TGI (NCI-H226 lung): > 100 µM
